# From patent US20230085307A1, “PYRIDAZINONE COMPOUND AND HERBICIDE” (NISSAN CHEMICAL CORPORATION, priority 2019, published 2023)
# Experiments:
# Italian ryegrass [1] = assay: Test Example 5: herbicidal effect by foliage application, plastic box (Table 20, symbol K); type: in vivo, Italian ryegrass (Lolium multiflorum); conditions: foliage application, three weeks after application
# Summary of the method: (§1)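 Sow seeds spot-wise in sterilized diluvial soil; cover with ~1.5 cm soil. Grow 14 days in greenhouse, 25° C. to 30° C. Spray foliage with emulsion diluted to predetermined amount. Rate effect after 3 weeks.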
# barnyard grass [2] = assay: Test Example 5: herbicidal effect by foliage application, plastic box (Table 20, symbol H); type: in vivo, barnyard grass (Echinochloa crus-galli); conditions: foliage application, three weeks after application
# Summary of the method: as §1
# windgrass [3] = assay: Test Example 4: herbicidal effect by soil treatment (Table 19, symbol L); type: in vivo, windgrass (Apera spica-venti)
# Summary of the method: (§2)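 Applied as a water-diluted emulsion, the compound was sprayed onto soil covering newly sown seeds. Evaluation came three weeks after application, in a greenhouse held at 25° C. to 30° C.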
# southern crabgrass [4] = assay: Test Example 4: herbicidal effect by soil treatment (Table 19, symbol F); type: in vivo, southern crabgrass (Digitaria ciliaris)
# Summary of the method: as §2
# wild oat [5] = assay: Test Example 4: herbicidal effect by soil treatment (Table 19, symbol I); type: in vivo, wild oat (Avena fatua)
# Summary of the method: as §2
# redroot pigweed [6] = assay: Test Example 4: herbicidal effect by soil treatment (Table 19, symbol N); type: in vivo, redroot pigweed (Amaranthus retroflexus)
# Summary of the method: as §2
# wild oat [7] = assay: Test Example 5: herbicidal effect by foliage application, plastic box (Table 20, symbol I); type: in vivo, wild oat (Avena fatua); conditions: foliage application, three weeks after application
# Summary of the method: as §1
# velvetleaf [8] = assay: Test Example 5: herbicidal effect by foliage application, plastic box (Table 20, symbol M); type: in vivo, velvetleaf (Abutilon theophrasti); conditions: foliage application, three weeks after application
# Summary of the method: as §1
# lambsquarters [9] = assay: Test Example 5: herbicidal effect by foliage application, plastic box (Table 20, symbol O); type: in vivo, lambsquarters (Chenopodium album); conditions: foliage application, three weeks after application
# Summary of the method: as §1
# persian speedwell [10] = assay: Test Example 4: herbicidal effect by soil treatment (Table 19, symbol R); type: in vivo, Persian speedwell (Veronica persica)
# Summary of the method: as §2
# Chinese sprangletop = assay: Test Example 3: herbicidal effect by foliage application, Wagner pot (Table 18, symbol D); type: in vivo, chinese sprangletop (Leptochloa chinensis); conditions: 320 g/ha
# Summary of the method: (§3)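 Plants were sown in alluvial soil held under 0.1–0.5 cm standing water and grown 14 days in a greenhouse at 25–30 °C. An emulsifiable formulation, water-diluted to the set dose, was then sprayed onto the foliage, and effects were scored three weeks later using previously defined criteria.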
# chickweed [11] = assay: Test Example 5: herbicidal effect by foliage application, plastic box (Table 20, symbol P); type: in vivo, common chickweed (Stellaria media); conditions: foliage application, three weeks after application
# Summary of the method: as §1
# southern crabgrass [12] = assay: Test Example 5: herbicidal effect by foliage application, plastic box (Table 20, symbol F); type: in vivo, southern crabgrass (Digitaria ciliaris); conditions: foliage application, three weeks after application
# Summary of the method: as §1
# rice flat sedge = assay: Test Example 3: herbicidal effect by foliage application, Wagner pot (Table 18, symbol E); type: in vivo, rice flat sedge (Cyperus iria); conditions: 320 g/ha
# Summary of the method: as §3
# chickweed [13] = assay: Test Example 4: herbicidal effect by soil treatment (Table 19, symbol P); type: in vivo, common chickweed (Stellaria media)
# Summary of the method: as §2
# barnyard grass [14] = assay: Test Example 4: herbicidal effect by soil treatment (Table 19, symbol H); type: in vivo, barnyard grass (Echinochloa crus-galli)
# Summary of the method: as §2
# persian speedwell [15] = assay: Test Example 5: herbicidal effect by foliage application, plastic box (Table 20, symbol R); type: in vivo, Persian speedwell (Veronica persica); conditions: foliage application, three weeks after application
# Summary of the method: as §1
# barnyard grass [16] = assay: Test Example 3: herbicidal effect by foliage application, Wagner pot (Table 18, symbol H); type: in vivo, barnyard grass (Echinochloa crus-galli); conditions: 320 g/ha
# Summary of the method: as §3
# blackgrass [17] = assay: Test Example 5: herbicidal effect by foliage application, plastic box (Table 20, symbol J); type: in vivo, blackgrass (Alopecurus myosuroides); conditions: foliage application, three weeks after application
# Summary of the method: as §1
# redroot pigweed [18] = assay: Test Example 5: herbicidal effect by foliage application, plastic box (Table 20, symbol N); type: in vivo, redroot pigweed (Amaranthus retroflexus); conditions: foliage application, three weeks after application
# Summary of the method: as §1
# green foxtail [19] = assay: Test Example 5: herbicidal effect by foliage application, plastic box (Table 20, symbol G); type: in vivo, green foxtail (Setaria viridis); conditions: foliage application, three weeks after application
# Summary of the method: as §1
# windgrass [20] = assay: Test Example 5: herbicidal effect by foliage application, plastic box (Table 20, symbol L); type: in vivo, windgrass (Apera spica-venti); conditions: foliage application, three weeks after application
# Summary of the method: as §1
# green foxtail [21] = assay: Test Example 4: herbicidal effect by soil treatment (Table 19, symbol G); type: in vivo, green foxtail (Setaria viridis)
# Summary of the method: as §2
# lambsquarters [22] = assay: Test Example 4: herbicidal effect by soil treatment (Table 19, symbol O); type: in vivo, lambsquarters (Chenopodium album)
# Summary of the method: as §2
# blackgrass [23] = assay: Test Example 4: herbicidal effect by soil treatment (Table 19, symbol J); type: in vivo, blackgrass (Alopecurus myosuroides)
# Summary of the method: as §2
# Italian ryegrass [24] = assay: Test Example 4: herbicidal effect by soil treatment (Table 19, symbol K); type: in vivo, Italian ryegrass (Lolium multiflorum)
# Summary of the method: as §2
# velvetleaf [25] = assay: Test Example 4: herbicidal effect by soil treatment (Table 19, symbol M); type: in vivo, velvetleaf (Abutilon theophrasti)
# Summary of the method: as §2
# [26] = amount of applied herbicide 320 g/ha
compound,measurement,setting,value
C#CCOc1ccccc1-c1sc2ccccc2c1-c1c(O)c(C)nn(C)c1=O [1-112],"K: Italian ryegrass, herbicidal effect",Italian ryegrass [1]; AAH 320 g/ha,3 (Herbicidal rate of 40% or more and less than 70%)
same,"H: barnyard grass, herbicidal effect",barnyard grass [2]; AAH 320 g/ha,4 (Herbicidal rate of 70% or more and less than 90%)
same,"herbicidal effect rating, L: windgrass",windgrass [3]; [26],5 (Herbicidal rate of 90% or more (almost completely withered))
same,"herbicidal effect rating, F: southern crabgrass",southern crabgrass [4]; [26],0 (Herbicidal rate of 5% or less (almost no effect))
same,"herbicidal effect rating, I: wild oat",wild oat [5]; [26],0 (Herbicidal rate of 5% or less (almost no effect))
same,"herbicidal effect rating, N: redroot pigweed",redroot pigweed [6]; [26],1 (Herbicidal rate of 5% or more and less than 20%)
same,"I: wild oat, herbicidal effect",wild oat [7]; AAH 320 g/ha,5 (Herbicidal rate of 90% or more (almost completely withered))
same,"M: velvetleaf, herbicidal effect",velvetleaf [8]; AAH 320 g/ha,4 (Herbicidal rate of 70% or more and less than 90%)
same,"O: lambsquarters, herbicidal effect",lambsquarters [9]; AAH 320 g/ha,1 (Herbicidal rate of 5% or more and less than 20%)
same,"herbicidal effect rating, R: persian speedwell",persian speedwell [10]; [26],5 (Herbicidal rate of 90% or more (almost completely withered))
same,"herbicidal effect on D (Chinese sprangletop), rating 0-5",Chinese sprangletop,3 (Herbicidal rate of 40% or more and less than 70%)
same,"P: chickweed, herbicidal effect",chickweed [11]; AAH 320 g/ha,5 (Herbicidal rate of 90% or more (almost completely withered))
same,"F: southern crabgrass, herbicidal effect",southern crabgrass [12]; AAH 320 g/ha,5 (Herbicidal rate of 90% or more (almost completely withered))
same,"herbicidal effect on E (rice flat sedge), rating 0-5",rice flat sedge,3 (Herbicidal rate of 40% or more and less than 70%)
same,"herbicidal effect rating, P: chickweed",chickweed [13]; [26],5 (Herbicidal rate of 90% or more (almost completely withered))
same,"herbicidal effect rating, H: barnyard grass",barnyard grass [14]; [26],0 (Herbicidal rate of 5% or less (almost no effect))
same,"R: persian speedwell, herbicidal effect",persian speedwell [15]; AAH 320 g/ha,5 (Herbicidal rate of 90% or more (almost completely withered))
same,"herbicidal effect on H (barnyard grass), rating 0-5",barnyard grass [16],4 (Herbicidal rate of 70% or more and less than 90%)
same,"J: blackgrass, herbicidal effect",blackgrass [17]; AAH 320 g/ha,5 (Herbicidal rate of 90% or more (almost completely withered))
same,"N: redroot pigweed, herbicidal effect",redroot pigweed [18]; AAH 320 g/ha,5 (Herbicidal rate of 90% or more (almost completely withered))
same,"G: green foxtail, herbicidal effect",green foxtail [19]; AAH 320 g/ha,5 (Herbicidal rate of 90% or more (almost completely withered))
same,"L: windgrass, herbicidal effect",windgrass [20]; AAH 320 g/ha,5 (Herbicidal rate of 90% or more (almost completely withered))
same,"herbicidal effect rating, G: green foxtail",green foxtail [21]; [26],1 (Herbicidal rate of 5% or more and less than 20%)
same,"herbicidal effect rating, O: lambsquarters",lambsquarters [22]; [26],0 (Herbicidal rate of 5% or less (almost no effect))
same,"herbicidal effect rating, J: blackgrass",blackgrass [23]; [26],4 (Herbicidal rate of 70% or more and less than 90%)
same,"herbicidal effect rating, K: Italian ryegrass",Italian ryegrass [24]; [26],0 (Herbicidal rate of 5% or less (almost no effect))
same,"herbicidal effect rating, M: velvetleaf",velvetleaf [25]; [26],3 (Herbicidal rate of 40% or more and less than 70%)
COc1nn(C)c(=O)c(-c2c(-c3cc(F)c(F)c(F)c3)sc3ccccc23)c1O [1-186],"K: Italian ryegrass, herbicidal effect",Italian ryegrass [1]; AAH 283 g/ha,0 (Herbicidal rate of 5% or less (almost no effect))
same,"H: barnyard grass, herbicidal effect",barnyard grass [2]; AAH 283 g/ha,0 (Herbicidal rate of 5% or less (almost no effect))
same,"L: windgrass, herbicidal effect rating",windgrass [3]; AAH 283 g/ha,0 (Herbicidal rate of 5% or less (almost no effect))
same,"F: southern crabgrass, herbicidal effect rating",southern crabgrass [4]; AAH 283 g/ha,0 (Herbicidal rate of 5% or less (almost no effect))
same,"I: wild oat, herbicidal effect rating",wild oat [5]; AAH 283 g/ha,0 (Herbicidal rate of 5% or less (almost no effect))
same,"N: redroot pigweed, herbicidal effect rating",redroot pigweed [6]; AAH 283 g/ha,2 (Herbicidal rate of 20% or more and less than 40%)
same,"I: wild oat, herbicidal effect",wild oat [7]; AAH 283 g/ha,0 (Herbicidal rate of 5% or less (almost no effect))
same,"M: velvetleaf, herbicidal effect",velvetleaf [8]; AAH 283 g/ha,3 (Herbicidal rate of 40% or more and less than 70%)
same,"O: lambsquarters, herbicidal effect",lambsquarters [9]; AAH 283 g/ha,2 (Herbicidal rate of 20% or more and less than 40%)
same,"R: persian speedwell, herbicidal effect rating",persian speedwell [10]; AAH 283 g/ha,4 (Herbicidal rate of 70% or more and less than 90%)
same,"P: chickweed, herbicidal effect",chickweed [11]; AAH 283 g/ha,5 (Herbicidal rate of 90% or more (almost completely withered))
same,"F: southern crabgrass, herbicidal effect",southern crabgrass [12]; AAH 283 g/ha,0 (Herbicidal rate of 5% or less (almost no effect))
same,"P: chickweed, herbicidal effect rating",chickweed [13]; AAH 283 g/ha,5 (Herbicidal rate of 90% or more (almost completely withered))
same,"H: barnyard grass, herbicidal effect rating",barnyard grass [14]; AAH 283 g/ha,0 (Herbicidal rate of 5% or less (almost no effect))
same,"R: persian speedwell, herbicidal effect",persian speedwell [15]; AAH 283 g/ha,5 (Herbicidal rate of 90% or more (almost completely withered))
same,"J: blackgrass, herbicidal effect",blackgrass [17]; AAH 283 g/ha,0 (Herbicidal rate of 5% or less (almost no effect))
same,"N: redroot pigweed, herbicidal effect",redroot pigweed [18]; AAH 283 g/ha,4 (Herbicidal rate of 70% or more and less than 90%)
same,"G: green foxtail, herbicidal effect",green foxtail [19]; AAH 283 g/ha,0 (Herbicidal rate of 5% or less (almost no effect))
same,"L: windgrass, herbicidal effect",windgrass [20]; AAH 283 g/ha,0 (Herbicidal rate of 5% or less (almost no effect))
same,"G: green foxtail, herbicidal effect rating",green foxtail [21]; AAH 283 g/ha,0 (Herbicidal rate of 5% or less (almost no effect))
same,"O: lambsquarters, herbicidal effect rating",lambsquarters [22]; AAH 283 g/ha,0 (Herbicidal rate of 5% or less (almost no effect))
same,"J: blackgrass, herbicidal effect rating",blackgrass [23]; AAH 283 g/ha,0 (Herbicidal rate of 5% or less (almost no effect))
same,"K: Italian ryegrass, herbicidal effect rating",Italian ryegrass [24]; AAH 283 g/ha,0 (Herbicidal rate of 5% or less (almost no effect))
same,"M: velvetleaf, herbicidal effect rating",velvetleaf [25]; AAH 283 g/ha,0 (Herbicidal rate of 5% or less (almost no effect))
